Assay results published in patent US20250195679A1, “ANTIBODY-DRUG CONJUGATE AND USE THEREOF” (SHANGHAI HUAOTA BIOPHARMACEUTICAL CO., LTD., priority 2022, published 2025).

How the values were obtained:
[1] = system: BxPC-3 human pancreatic cancer cells; test: BxPC3 CDX pancreatic cancer mouse efficacy model; type: in vivo, NPG mice; details: 5 mg/kg i.p. BIW, 6 doses, FIG. 7
Protocol: NPG mice were used to establish a BxPC-3 pancreatic cancer animal model for assaying the efficacy of the test antibodies. The BxPC-3 human pancreatic cancer cells used in this example were incubated in an RPMI-1640 medium supplemented with 10% FBS in an incubator at 37° C. with 5% CO2. Before continuous cell culturing for ten generations, 100 μL of PBS containing about 1×10^7 BxPC-3 cells was mixed uniformly with an equal volume of Matrigel. The mixture was then inoculated by subcutaneous injection into 18 NPG mice on the right side of the back near the axilla, with an inoculation volume of about 200 μL. The mice were anesthetized with 2%-5% isoflurane prior to the inoculation. On the day of inoculation, 1.0×10^7 PBMCs (100 μL) were injected via the tail vein. When the tumors grew to an average size of about 50-80 mm^3, the 18 tumor-bearing mice were randomly divided into 3 groups of 6 based on tumor volume and body weight.
Oleclumab is an anti-CD73 monoclonal antibody developed by AstraZeneca, currently in Phase 2 clinical trials. Uliledlimab is an anti-CD73 monoclonal antibody developed by I-Mab Biopharma, currently in Phase 1 clinical trials. The amino acid sequence of the heavy chain of 900543 is as set forth in SEQ ID NO. 45, and the amino acid sequence of the light chain of 900543 is as set forth in SEQ ID NO. 46. […]

[2] = system: MDA-MB-231 human breast cancer cells; test: MDA-MB-231 triple-negative breast cancer CDX mouse efficacy model (Example 8); type: in vivo, NPG mice; details: 5 mg/kg i.p. BIW, 8 doses, FIG. 8
Protocol: NPG mice were used to establish an MDA-MB-231 triple-negative breast cancer animal model for assaying the efficacy of the test antibodies. The MDA-MB-231 human breast cancer cells used in this example were incubated in an L-15 medium supplemented with 10% FBS in an incubator at 37° C. without CO2. Before continuous cell culturing for ten generations, about 5.0×10^6 MDA-MB-231 cells were suspended in 100 μL of PBS and then mixed uniformly with an equal volume of Matrigel. The mixture was then inoculated by subcutaneous injection into NPG humanized mice on the right side of the back near the axilla, with an inoculation volume of about 200 μL. The mice were anesthetized with 2%-5% isoflurane prior to the inoculation. On the day of inoculation, 1.0×10^7 PBMCs (100 μL) were injected via the tail vein. When the tumors grew to an average size of about 50-80 mm^3, the […] tumor-bearing mice were randomly divided into 7 groups of 6 based on tumor volume and body weight. […] Oleclumab is an anti-CD73 monoclonal antibody developed by AstraZeneca, currently in Phase 2 clinical trials. The amino acid sequence of the heavy chain of 900201 is as set forth in SEQ ID NO. 43, and the amino acid sequence of the light chain of 900201 is as set forth in SEQ ID NO. 44.

Substance | inhibition of growth of BxPC-3 pancreatic cancer [1] | inhibition of growth of MDA-MB-231 breast cancer [2]
900543: negative control antibody, which does not bind to the CD73 antigen; heavy chain SEQ ID NO. 45, light chain SEQ ID NO. 46 [compound 900543, reference compound] | could not inhibit tumor growth | 
900201: negative control antibody, which does not bind to the CD73 antigen; heavy chain SEQ ID NO. 43, light chain SEQ ID NO. 44 [compound 900201, reference compound] |  | could not inhibit the tumor growth
